Data published in patent US10251395B2, “Substituted furano-/thienocycloalkylamino-2-pyrimidine derivatives and use thereof for controlling undesired plant growth” (Bayer CropScience Aktiengesellschaft, priority 2015, dated 2019).

How the values were obtained:
Type in all cases: in vivo
Amaranthus retroflexus [1] = assay: Pre-emergence herbicidal effect; conditions: scored visually after 3 weeks
Description: (§1) Seeds of monocotyledonous and dicotyledonous weed plants and crop plants are laid out in wood-fiber pots in sandy loam and covered with soil. The compounds of the invention, formulated in the form of wettable powders (WP) or as emulsion concentrates (EC), are then applied to the surface of the covering soil as aqueous suspension or emulsion at a water application rate equating to 600 to 800 L/ha with addition of 0.2% wetting agent.
(§2) After the treatment, the pots are placed in a greenhouse and kept under good growth conditions for the trial plants. The damage to the test plants is scored visually after a test period of 3 weeks by comparison with untreated controls (herbicidal activity in percent (%): 100% activity=the plants have died, 0% activity=like control plants).
(§3) • ABUTH: Abutilon theophrasti ALOMY: Alopecurus myosuroides • AMARE: Amaranthus retroflexus AVEFA: Avena fatua • CYPES: Cyperus esculentus ECHCG: Echinochloa crus-galli • LOLMU: Lolium multiflorum MATIN: Matricaria inodora • PHBPU: Ipomoea purpurea POLCO: Polygonum convolvulus • SETVI: Setaria viridis STEME: Stellaria media • VERPE: Veronica persica VIOTR: Viola tricolor

Echinochloa crus-galli [2] = assay: Pre-emergence herbicidal effect; conditions: scored visually after 3 weeks
Description: as §1, §2, §3

Lolium multiflorum = assay: Pre-emergence herbicidal effect; conditions: Dosage 320 g/ha, scored visually after 3 weeks
Description: as §1, §2, §3

Matricaria inodora [3] = assay: Pre-emergence herbicidal effect; conditions: scored visually after 3 weeks
Description: as §1, §2, §3

Polygonum convolvulus = assay: Pre-emergence herbicidal effect; conditions: scored visually after 3 weeks
Description: as §1, §2, §3

Setaria viridis [4] = assay: Pre-emergence herbicidal effect; conditions: scored visually after 3 weeks
Description: as §1, §2, §3

Stellaria media [5] = assay: Pre-emergence herbicidal effect; conditions: scored visually after 3 weeks
Description: as §1, §2, §3

Veronica persica [6] = assay: Pre-emergence herbicidal effect; conditions: scored visually after 3 weeks
Description: as §1, §2, §3

Viola tricolor [7] = assay: Pre-emergence herbicidal effect; conditions: scored visually after 3 weeks
Description: as §1, §2, §3

Amaranthus retroflexus [8] = assay: Post-emergence herbicidal effect; conditions: assessed visually after about 3 weeks vs untreated controls
Description: (§4) • ABUTH: Abutilon theophrasti ALOMY: Alopecurus myosuroides • AMARE: Amaranthus retroflexus AVEFA: Avena fatua • CYPES: Cyperus esculentus ECHCG: Echinochloa crus-galli • LOLMU: Lolium multiflorum MATIN: Matricaria inodora • PHBPU: Ipomoea purpurea POLCO: Polygonum convolvulus • SETVI: Setaria viridis STEME: Stellaria media • VERPE: Veronica persica VIOTR: Viola tricolor Seeds of monocotyledonous and dicotyledonous weed and crop plants are laid out in sandy loam in wood-fiber pots, covered with soil and cultivated in a greenhouse under good growth conditions. 2 to 3 weeks after sowing, the test plants are treated at the one-leaf stage. The compounds of the invention, formulated in the form of wettable powders (WP) or as emulsion concentrates (EC), are then sprayed onto the green parts of the plants as aqueous suspension or emulsion at a water application rate equating to 600 to 800 L/ha with addition of 0.2% wetting agent. After the test plants have been left to stand in the greenhouse under optimal growth conditions for about 3 weeks, the action of the preparations is assessed visually in comparison to untreated controls (herbicidal action in percent (%): 100% activity=the plants have died, 0% activity=like control plants).

Echinochloa crus-galli [9] = assay: Post-emergence herbicidal effect; conditions: 320 g/ha, assessed visually after about 3 weeks vs untreated controls
Description: as §4

Stellaria media [10] = assay: Post-emergence herbicidal effect; conditions: assessed visually after about 3 weeks vs untreated controls
Description: as §4

Viola tricolor [11] = assay: Post-emergence herbicidal effect; conditions: assessed visually after about 3 weeks vs untreated controls
Description: as §4

Abutilon theophrasti [12] = assay: Pre-emergence herbicidal effect; conditions: scored visually after 3 weeks
Description: as §1, §2, §3

Abutilon theophrasti [13] = assay: Post-emergence herbicidal effect; conditions: assessed visually after about 3 weeks vs untreated controls
Description: as §4

Veronica persica [14] = assay: Post-emergence herbicidal effect; conditions: 320 g/ha, assessed visually after about 3 weeks vs untreated controls
Description: as §4

Alopecurus myosuroides = assay: Pre-emergence herbicidal effect; conditions: Dosage 320 g/ha, scored visually after 3 weeks
Description: as §1, §2, §3

Matricaria inodora [15] = assay: Post-emergence herbicidal effect; conditions: assessed visually after about 3 weeks vs untreated controls
Description: as §4

Setaria viridis [16] = assay: Post-emergence herbicidal effect; conditions: 320 g/ha, assessed visually after about 3 weeks vs untreated controls
Description: as §4

SMILES: Nc1nc(NC2CCCc3sccc32)ncc1C(F)(F)F (racemic) [compound 70]
- AMARE pre-emergence efficacy (herbicidal activity) (Amaranthus retroflexus [1]; Dosage 80 g/ha): 100%
- AMARE pre-emergence efficacy (herbicidal activity) (Amaranthus retroflexus [1]; Dosage 320 g/ha): 100%
- ECHCG pre-emergence efficacy (herbicidal activity) (Echinochloa crus-galli [2]; Dosage 320 g/ha): 100%
- LOLMU pre-emergence efficacy (herbicidal activity) (Lolium multiflorum): 100%
- MATIN pre-emergence efficacy (herbicidal activity) (Matricaria inodora [3]; Dosage 80 g/ha): 100%
- MATIN pre-emergence efficacy (herbicidal activity) (Matricaria inodora [3]; Dosage 320 g/ha): 100%
- POLCO pre-emergence efficacy (herbicidal activity) (Polygonum convolvulus; Dosage 320 g/ha): 100%
- SETVI pre-emergence efficacy (herbicidal activity) (Setaria viridis [4]; Dosage 80 g/ha): 100%
- SETVI pre-emergence efficacy (herbicidal activity) (Setaria viridis [4]; Dosage 320 g/ha): 100%
- STEME pre-emergence efficacy (herbicidal activity) (Stellaria media [5]; Dosage 80 g/ha): 100%
- STEME pre-emergence efficacy (herbicidal activity) (Stellaria media [5]; Dosage 320 g/ha): 100%
- VERPE pre-emergence efficacy (herbicidal activity) (Veronica persica [6]; Dosage 80 g/ha): 90%
- VERPE pre-emergence efficacy (herbicidal activity) (Veronica persica [6]; Dosage 320 g/ha): 100%
- VIOTR pre-emergence efficacy (herbicidal activity) (Viola tricolor [7]; Dosage 80 g/ha): 100%
- VIOTR pre-emergence efficacy (herbicidal activity) (Viola tricolor [7]; Dosage 320 g/ha): 100%
- post-emergence efficacy AMARE (Amaranthus retroflexus [8]; 80 g/ha): 40%
- post-emergence efficacy AMARE (Amaranthus retroflexus [8]; 320 g/ha): 100%
- post-emergence efficacy ECHCG (Echinochloa crus-galli [9]): 80%
- post-emergence efficacy STEME (Stellaria media [10]; 80 g/ha): 100%
- post-emergence efficacy STEME (Stellaria media [10]; 320 g/ha): 100%
- post-emergence efficacy VIOTR (Viola tricolor [11]; 320 g/ha): 100%

SMILES: Cc1cc2c(s1)CCCC2Nc1nc(N)c(S(C)(=O)=O)c(Cl)n1 (racemic) [compound 16]
- ABUTH pre-emergence efficacy (herbicidal activity) (Abutilon theophrasti [12]; Dosage 80 g/ha): 40%
- ABUTH pre-emergence efficacy (herbicidal activity) (Abutilon theophrasti [12]; Dosage 320 g/ha): 40%
- AMARE pre-emergence efficacy (herbicidal activity) (Amaranthus retroflexus [1]; Dosage 80 g/ha): 90%
- AMARE pre-emergence efficacy (herbicidal activity) (Amaranthus retroflexus [1]; Dosage 320 g/ha): 100%
- ECHCG pre-emergence efficacy (herbicidal activity) (Echinochloa crus-galli [2]; Dosage 80 g/ha): 100%
- ECHCG pre-emergence efficacy (herbicidal activity) (Echinochloa crus-galli [2]; Dosage 320 g/ha): 100%
- MATIN pre-emergence efficacy (herbicidal activity) (Matricaria inodora [3]; Dosage 80 g/ha): 100%
- MATIN pre-emergence efficacy (herbicidal activity) (Matricaria inodora [3]; Dosage 320 g/ha): 100%
- POLCO pre-emergence efficacy (herbicidal activity) (Polygonum convolvulus; Dosage 80 g/ha): 20%
- POLCO pre-emergence efficacy (herbicidal activity) (Polygonum convolvulus; Dosage 320 g/ha): 40%
- SETVI pre-emergence efficacy (herbicidal activity) (Setaria viridis [4]; Dosage 80 g/ha): 20%
- SETVI pre-emergence efficacy (herbicidal activity) (Setaria viridis [4]; Dosage 320 g/ha): 100%
- STEME pre-emergence efficacy (herbicidal activity) (Stellaria media [5]; Dosage 80 g/ha): 100%
- STEME pre-emergence efficacy (herbicidal activity) (Stellaria media [5]; Dosage 320 g/ha): 100%
- VERPE pre-emergence efficacy (herbicidal activity) (Veronica persica [6]; Dosage 80 g/ha): 100%
- VERPE pre-emergence efficacy (herbicidal activity) (Veronica persica [6]; Dosage 320 g/ha): 100%
- VIOTR pre-emergence efficacy (herbicidal activity) (Viola tricolor [7]; Dosage 80 g/ha): 100%
- VIOTR pre-emergence efficacy (herbicidal activity) (Viola tricolor [7]; Dosage 320 g/ha): 100%
- post-emergence efficacy ABUTH (Abutilon theophrasti [13]; 320 g/ha): 90%
- post-emergence efficacy AMARE (Amaranthus retroflexus [8]; 320 g/ha): 90%
- post-emergence efficacy ECHCG (Echinochloa crus-galli [9]): 100%
- post-emergence efficacy STEME (Stellaria media [10]; 320 g/ha): 90%
- post-emergence efficacy VERPE (Veronica persica [14]): 80%
- post-emergence efficacy VIOTR (Viola tricolor [11]; 320 g/ha): 90%

SMILES: Cc1cc2c(s1)CCCC2Nc1ncc(-c2cncc(C(F)(F)F)c2)c(N)n1 (racemic) [compound 290]
- ALOMY pre-emergence efficacy (herbicidal activity) (Alopecurus myosuroides): 80%
- AMARE pre-emergence efficacy (herbicidal activity) (Amaranthus retroflexus [1]; Dosage 320 g/ha): 100%
- ECHCG pre-emergence efficacy (herbicidal activity) (Echinochloa crus-galli [2]; Dosage 320 g/ha): 100%
- LOLMU pre-emergence efficacy (herbicidal activity) (Lolium multiflorum): 100%
- MATIN pre-emergence efficacy (herbicidal activity) (Matricaria inodora [3]; Dosage 80 g/ha): 90%
- MATIN pre-emergence efficacy (herbicidal activity) (Matricaria inodora [3]; Dosage 320 g/ha): 100%
- POLCO pre-emergence efficacy (herbicidal activity) (Polygonum convolvulus; Dosage 80 g/ha): 50%
- POLCO pre-emergence efficacy (herbicidal activity) (Polygonum convolvulus; Dosage 320 g/ha): 80%
- SETVI pre-emergence efficacy (herbicidal activity) (Setaria viridis [4]; Dosage 80 g/ha): 60%
- SETVI pre-emergence efficacy (herbicidal activity) (Setaria viridis [4]; Dosage 320 g/ha): 100%
- STEME pre-emergence efficacy (herbicidal activity) (Stellaria media [5]; Dosage 80 g/ha): 100%
- STEME pre-emergence efficacy (herbicidal activity) (Stellaria media [5]; Dosage 320 g/ha): 100%
- VERPE pre-emergence efficacy (herbicidal activity) (Veronica persica [6]; Dosage 80 g/ha): 100%
- VERPE pre-emergence efficacy (herbicidal activity) (Veronica persica [6]; Dosage 320 g/ha): 100%
- VIOTR pre-emergence efficacy (herbicidal activity) (Viola tricolor [7]; Dosage 80 g/ha): 100%
- VIOTR pre-emergence efficacy (herbicidal activity) (Viola tricolor [7]; Dosage 320 g/ha): 100%
- post-emergence efficacy ABUTH (Abutilon theophrasti [13]; 80 g/ha): 60%
- post-emergence efficacy ABUTH (Abutilon theophrasti [13]; 320 g/ha): 60%
- post-emergence efficacy AMARE (Amaranthus retroflexus [8]; 80 g/ha): 80%
- post-emergence efficacy AMARE (Amaranthus retroflexus [8]; 320 g/ha): 80%
- post-emergence efficacy MATIN (Matricaria inodora [15]; 80 g/ha): 80%
- post-emergence efficacy MATIN (Matricaria inodora [15]; 320 g/ha): 90%
- post-emergence efficacy SETVI (Setaria viridis [16]): 60%
- post-emergence efficacy VERPE (Veronica persica [14]): 100%
- post-emergence efficacy VIOTR (Viola tricolor [11]; 80 g/ha): 60%
- post-emergence efficacy VIOTR (Viola tricolor [11]; 320 g/ha): 90%
